# Test results as given in article PMC6722837, “Multiple Modulation of Acid-Sensing Ion Channel 1a by the Alkaloid Daurisoline” (Biomolecules, 2019).
# Biological target: T1, ASIC1a (acid-sensing ion channel 1a) (Rattus norvegicus, UniProt P55926)
# T1 construct: gene Asic1; rat ASIC1a isoform expressed in Xenopus laevis oocytes
# T1 sequence (P55926 1-526): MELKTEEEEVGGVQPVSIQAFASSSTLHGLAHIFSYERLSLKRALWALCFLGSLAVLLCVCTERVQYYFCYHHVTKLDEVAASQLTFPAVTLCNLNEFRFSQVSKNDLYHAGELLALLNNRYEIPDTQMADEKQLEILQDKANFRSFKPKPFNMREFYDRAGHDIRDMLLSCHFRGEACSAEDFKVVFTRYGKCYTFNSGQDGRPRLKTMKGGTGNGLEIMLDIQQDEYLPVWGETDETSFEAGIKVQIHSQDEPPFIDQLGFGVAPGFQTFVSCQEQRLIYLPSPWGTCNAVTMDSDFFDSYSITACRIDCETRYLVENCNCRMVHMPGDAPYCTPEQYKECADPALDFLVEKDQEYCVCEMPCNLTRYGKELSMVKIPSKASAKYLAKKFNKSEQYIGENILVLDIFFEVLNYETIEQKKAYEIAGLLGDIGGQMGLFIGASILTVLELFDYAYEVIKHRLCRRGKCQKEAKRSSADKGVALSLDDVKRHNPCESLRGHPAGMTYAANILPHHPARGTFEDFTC
# Assay: two-electrode voltage clamp in Xenopus oocytes; second peak of the pH […].5-evoked current at conditioning pH […]
# Type: cell-based
smiles,measurement,value
"COc1cc2c(cc1O)[C@@H](Cc1ccc(O)c(Oc3ccc(C[C@@H]4c5cc(OC)c(OC)cc5CCN4C)cc3)c1)N(C)CC2 [DAU, daurisoline]",EC50,23 ± 3 µM
